Measurements as given in the supplement of paper PMC10307832.

Legend:
Assay in all cases: relative viability (nuclei count vs DMSO), 5 days (fraction); higher = more cells survive
NCI-H2009 = test system: NCI-H2009
Method in brief: (§1)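 A single step with final 0.05% Triton X-100, 1% formaldehyde and 1 ug/ml Hoechst fixed the cells and stained nuclei 5 days after treatment. Lung cancer cell lines in 1536-well plates had been treated by pin tool the day after seeding with one drug alone or a fixed anchor-drug dose plus five library-drug doses (not always all listed) in √10 steps, and nuclei were counted on 4× images. Relative viability is the ratio of nuclei in treated wells to nuclei in vehicle wells, taken as the median of duplicate plates.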

NCI-H1734 = test system: NCI-H1734
Method in brief: as §1

UMC-11 = test system: UMC-11
Method in brief: as §1

LC-2-ad = test system: LC-2-ad
Method in brief: as §1

HCC-366 = test system: HCC-366
Method in brief: as §1

NCI-H23 = test system: NCI-H23
Method in brief: as §1

EMC-BAC-2 = test system: EMC-BAC-2
Method in brief: as §1

HCC-15 = test system: HCC-15
Method in brief: as §1

HARA = test system: HARA
Method in brief: as §1

HCC-78 = test system: HCC-78
Method in brief: as §1

COR-L23 = test system: COR-L23
Method in brief: as §1

NCI-H1793 = test system: NCI-H1793
Method in brief: as §1

SK-LU-1 = test system: SK-LU-1
Method in brief: as §1

NCI-H2228 = test system: NCI-H2228
Method in brief: as §1

NCI-H1944 = test system: NCI-H1944
Method in brief: as §1

ChaGo-K-1 = test system: ChaGo-K-1
Method in brief: as §1

NCI-H2126 = test system: NCI-H2126
Method in brief: as §1

A-427 = test system: A-427
Method in brief: as §1

NCI-H2023 = test system: NCI-H2023
Method in brief: as §1

NCI-H2405 = test system: NCI-H2405
Method in brief: as §1

NCI-H838 = test system: NCI-H838
Method in brief: as §1

NCI-H1993 = test system: NCI-H1993
Method in brief: as §1

ABC-1 = test system: ABC-1
Method in brief: as §1

CC1(C)CCC(c2ccc(Cl)cc2)=C(CN2CCN(c3ccc(C(=O)NS(=O)(=O)c4ccc(N[C@H](CCN5CCOCC5)CSc5ccccc5)c(S(=O)(=O)C(F)(F)F)c4)cc3)CC2)C1 [Navitoclax] + CS(=O)(=O)N1CCN(Cc2cc3nc(-c4cccc5[nH]ncc45)nc(N4CCOCC4)c3s2)CC1 [Pictilisib] (partner 1 µM)
relative viability (NCI-H2009; first compound 0.005 µM): 0.771
relative viability (NCI-H2009; first compound 0.01581 µM): 1.09
relative viability (NCI-H2009; first compound 0.05 µM): 0.961
relative viability (NCI-H2009; first compound 0.1581 µM): 0.898
relative viability (NCI-H2009; first compound 0.5 µM): 0.979
relative viability (NCI-H1734; first compound 0.005 µM): 0.455
relative viability (NCI-H1734; first compound 0.01581 µM): 0.481
relative viability (NCI-H1734; first compound 0.1581 µM): 0.49
relative viability (NCI-H1734; first compound 0.5 µM): 0.465
relative viability (UMC-11; first compound 0.005 µM): 0.743
relative viability (UMC-11; first compound 0.01581 µM): 0.809
relative viability (UMC-11; first compound 0.1581 µM): 0.741
relative viability (UMC-11; first compound 0.5 µM): 0.516
relative viability (LC-2-ad; first compound 0.005 µM): 0.614
relative viability (LC-2-ad; first compound 0.01581 µM): 0.654
relative viability (LC-2-ad; first compound 0.05 µM): 0.324
relative viability (LC-2-ad; first compound 0.1581 µM): 0.447
relative viability (LC-2-ad; first compound 0.5 µM): 0.38
relative viability (HCC-366; first compound 0.005 µM): 0.159
relative viability (HCC-366; first compound 0.01581 µM): 0.174
relative viability (HCC-366; first compound 0.05 µM): 0.207
relative viability (HCC-366; first compound 0.1581 µM): 0.107
relative viability (HCC-366; first compound 0.5 µM): 0.15
relative viability (NCI-H23; first compound 0.005 µM): 0.479
relative viability (NCI-H23; first compound 0.01581 µM): 0.498
relative viability (NCI-H23; first compound 0.05 µM): 0.483
relative viability (NCI-H23; first compound 0.1581 µM): 0.433
relative viability (NCI-H23; first compound 0.5 µM): 0.504
relative viability (EMC-BAC-2; first compound 0.005 µM): 0.506
relative viability (EMC-BAC-2; first compound 0.01581 µM): 0.646
relative viability (EMC-BAC-2; first compound 0.05 µM): 0.565
relative viability (EMC-BAC-2; first compound 0.1581 µM): 0.548
relative viability (EMC-BAC-2; first compound 0.5 µM): 0.6
relative viability (HCC-15; first compound 0.005 µM): 0.733
relative viability (HCC-15; first compound 0.01581 µM): 0.769
relative viability (HCC-15; first compound 0.05 µM): 0.614
relative viability (HCC-15; first compound 0.1581 µM): 0.726
relative viability (HCC-15; first compound 0.5 µM): 0.667
relative viability (HARA; first compound 0.005 µM): 0.389
relative viability (HARA; first compound 0.01581 µM): 0.372
relative viability (HARA; first compound 0.05 µM): 0.384
relative viability (HARA; first compound 0.1581 µM): 0.425
relative viability (HARA; first compound 0.5 µM): 0.381
relative viability (HCC-78; first compound 0.005 µM): 0.184
relative viability (HCC-78; first compound 0.01581 µM): 0.261
relative viability (HCC-78; first compound 0.1581 µM): 0.232
relative viability (HCC-78; first compound 0.5 µM): 0.205
relative viability (COR-L23; first compound 0.005 µM): 0.733
relative viability (COR-L23; first compound 0.01581 µM): 0.919
relative viability (COR-L23; first compound 0.05 µM): 0.818
relative viability (COR-L23; first compound 0.1581 µM): 0.763
relative viability (COR-L23; first compound 0.5 µM): 0.932
relative viability (NCI-H1793; first compound 0.005 µM): 0.317
relative viability (NCI-H1793; first compound 0.01581 µM): 0.505
relative viability (NCI-H1793; first compound 0.05 µM): 0.301
relative viability (NCI-H1793; first compound 0.1581 µM): 0.226
relative viability (NCI-H1793; first compound 0.5 µM): 0.242
relative viability (SK-LU-1; first compound 0.005 µM): 0.557
relative viability (SK-LU-1; first compound 0.01581 µM): 0.725
relative viability (SK-LU-1; first compound 0.05 µM): 0.499
relative viability (SK-LU-1; first compound 0.1581 µM): 0.522
relative viability (SK-LU-1; first compound 0.5 µM): 0.483
relative viability (NCI-H2228; first compound 0.005 µM): 0.431
relative viability (NCI-H2228; first compound 0.01581 µM): 0.526
relative viability (NCI-H2228; first compound 0.05 µM): 0.367
relative viability (NCI-H2228; first compound 0.1581 µM): 0.366
relative viability (NCI-H2228; first compound 0.5 µM): 0.304
relative viability (NCI-H1944; first compound 0.005 µM): 0.336
relative viability (NCI-H1944; first compound 0.01581 µM): 0.371
relative viability (NCI-H1944; first compound 0.05 µM): 0.374
relative viability (NCI-H1944; first compound 0.1581 µM): 0.357
relative viability (NCI-H1944; first compound 0.5 µM): 0.397
relative viability (ChaGo-K-1; first compound 0.005 µM): 0.645
relative viability (ChaGo-K-1; first compound 0.01581 µM): 0.799
relative viability (ChaGo-K-1; first compound 0.05 µM): 0.648
relative viability (ChaGo-K-1; first compound 0.1581 µM): 0.641
relative viability (ChaGo-K-1; first compound 0.5 µM): 0.667
relative viability (NCI-H2126; first compound 0.005 µM): 0.529
relative viability (NCI-H2126; first compound 0.01581 µM): 0.507
relative viability (NCI-H2126; first compound 0.05 µM): 0.493
relative viability (NCI-H2126; first compound 0.1581 µM): 0.49
relative viability (NCI-H2126; first compound 0.5 µM): 0.451
relative viability (A-427; first compound 0.005 µM): 0.675
relative viability (A-427; first compound 0.01581 µM): 0.675
relative viability (A-427; first compound 0.05 µM): 0.659
relative viability (A-427; first compound 0.1581 µM): 0.753
relative viability (A-427; first compound 0.5 µM): 0.799
relative viability (NCI-H2023; first compound 0.005 µM): 0.282
relative viability (NCI-H2023; first compound 0.01581 µM): 0.248
relative viability (NCI-H2023; first compound 0.05 µM): 0.22
relative viability (NCI-H2023; first compound 0.1581 µM): 0.263
relative viability (NCI-H2023; first compound 0.5 µM): 0.269
relative viability (NCI-H2405; first compound 0.005 µM): 0.409
relative viability (NCI-H2405; first compound 0.01581 µM): 0.754
relative viability (NCI-H2405; first compound 0.05 µM): 0.434
relative viability (NCI-H2405; first compound 0.1581 µM): 0.451
relative viability (NCI-H2405; first compound 0.5 µM): 0.41
relative viability (NCI-H838; first compound 0.005 µM): 0.435
relative viability (NCI-H838; first compound 0.01581 µM): 0.571
relative viability (NCI-H838; first compound 0.05 µM): 0.541
relative viability (NCI-H838; first compound 0.1581 µM): 0.494
relative viability (NCI-H838; first compound 0.5 µM): 0.486
relative viability (NCI-H1993; first compound 0.005 µM): 0.808
relative viability (NCI-H1993; first compound 0.01581 µM): 0.853
relative viability (NCI-H1993; first compound 0.05 µM): 0.803
relative viability (NCI-H1993; first compound 0.1581 µM): 0.792
relative viability (NCI-H1993; first compound 0.5 µM): 0.925
relative viability (ABC-1; first compound 0.005 µM): 0.795
relative viability (ABC-1; first compound 0.01581 µM): 1
relative viability (ABC-1; first compound 0.05 µM): 0.686
relative viability (ABC-1; first compound 0.1581 µM): 0.64
relative viability (ABC-1; first compound 0.5 µM): 0.616
